The values that follow come from publication PMC4441825 (Chemical research in toxicology, 2013).

The assay addresses regulator of G-protein signaling 4 (RGS4) (Rattus norvegicus, UniProt P49799). The assay can be described thus: LC-ESI-MS of intact protein. The assay is classed as biochemical.

Chain of regulator of G-protein signaling 4 (RGS4) (P49799 52-205): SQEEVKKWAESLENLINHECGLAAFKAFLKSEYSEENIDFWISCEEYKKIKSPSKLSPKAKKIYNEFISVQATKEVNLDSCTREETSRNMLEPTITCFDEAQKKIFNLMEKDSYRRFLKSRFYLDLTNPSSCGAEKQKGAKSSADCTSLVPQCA
Chain of regulator of G-protein signaling 4 (RGS4) (P63096 2-354 R178M/A326S partner): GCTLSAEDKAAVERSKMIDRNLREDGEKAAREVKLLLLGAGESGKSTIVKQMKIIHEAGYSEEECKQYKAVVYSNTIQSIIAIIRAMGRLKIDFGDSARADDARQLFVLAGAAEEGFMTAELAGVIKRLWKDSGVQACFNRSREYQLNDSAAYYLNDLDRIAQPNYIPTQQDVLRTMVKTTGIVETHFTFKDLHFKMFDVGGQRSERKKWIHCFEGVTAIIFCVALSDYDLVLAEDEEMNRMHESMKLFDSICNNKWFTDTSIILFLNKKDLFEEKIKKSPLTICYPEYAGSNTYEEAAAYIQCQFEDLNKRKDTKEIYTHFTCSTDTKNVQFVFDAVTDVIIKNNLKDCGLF

Regarding `CCCCCC(O)C=CC=O` (stereo not shown) [4HNE, 4-hydroxy-2-nonenal], the 50% inhibitory concentration (IC50) is around 7.5 mM.
